Patent publication US20230414543A1, “METHOD OF FEEDING A GESTATING OR LACTATING ANIMAL” (NUTRECO IP ASSETS B.V., priority 2021, published 2023)
Read-outs that look alike come from different tables or passages of the source.

Key:
[1] = tested on: gestating or lactating sows and their litters
From the text: (§1) From day 80 of gestation up to parturition (day 115 of gestation), and subsequently through the whole period of lactation from parturition until weaning (25 days after parturition), sows of various parities were fed a top dress of 100 g/day on top of their normal diet. […] The placebo top dress was formulated from barley, wheat, corn, wheat bran, molasses, vegetable oil, and sugar. […] The ingredient (40%) was embedded in a matrix of hydrogenated fat (50%) and calcium carbonate (10%).
(§2) During gestation, sows were fed the normal diet at approximately 3 kg/day. In lactation, all sows were fed the normal diet at an increasing level following a set feeding scheme, starting from 3 kg after parturition, and increasing by 0.5 kg each day to the maximum intake capacity of each sow. The allowance was capped at a maximum of 9 kg/day.
At parturition, piglets were weighed immediately as they were born, and again at 24 h after birth, to estimate colostrum intake based on the algorithm developed by Theil et al. (Mechanistic model to predict colostrum intake based on deuterium oxide dilution technique data and impact of gestation and prefarrowing diets on piglet intake and sow yield of colostrum. J. Anim. Sci. 2014, 92:5507-5519). One day after parturition, when 24-h weights had been recorded, litter size was standardized by cross-fostering, to 14 or 15 piglets per litter. […] As a measure of milk production, the weight gain of the litter was measured at 7 days after parturition, and again at 24 days of lactation, just before piglets were weaned. […] When analyzing the data, litter weight gain was corrected for litter size.

colostrum of sows = tested on: colostrum of sows
From the text: as §1
Colostrum samples were collected just after the first piglet was born and were analyzed for total solids, protein, and lactose, using Brix refractometry. Brix refractometry is a method to measure the concentration of solutes in a solution, based on the refraction of light, and is widely used to analyze milk samples in the dairy industry (for example: Lokke M M, Engelbrecht R, Wiking L. Covariance structures of fat and protein influence the estimation of IgG in bovine colostrum. Journal of Dairy Research (2016), 83: 58-66). […] Total solids is the sum of protein, fat, and lactose.
The total output of nutrients (protein, lactose, or total solids) per sow was calculated by multiplying the volume of colostrum per sow (Table 2) with the concentration (Table 3) of each nutrient.

[2] = tested on: gestating or lactating sows and their litters; remark: listed apart in the source
From the text: From day 109 of gestation up to parturition (day 115 of gestation), and subsequently through the whole period of lactation from parturition until weaning (25 days after parturition), sows of various parities were fed a top dress of 100 g/day on top of their normal diet. […] The placebo top dress was formulated from barley, wheat, corn, wheat bran, molasses, vegetable oil, and sugar.
as §2
At parturition, piglets were weighed immediately as they were born. One day after parturition, litter size was standardized by cross-fostering, to 14 or 15 piglets per litter. Piglets were only cross-fostered to sows within the same treatment. As a measure of milk production, the weight gain of the litter was measured at 7 days after parturition, and again at 21 days of lactation, just before piglets were weaned (24 days of lactation). […] When analyzing the data, litter weight gain was corrected for litter size.

[3] = corrected for litter size, 4 g/day, day 80 of gestation until weaning
[4] = piglets, 4 g/day, day 80 of gestation until weaning
[5] = Brix refractometry, sample just after first piglet was born
[6] = volume of colostrum × concentration

calcium gluconate
Litter weight gain d1-d7, kg per litter [1, 3]: 16.9 kg per litter
Litter weight gain d1-d24, kg per litter [1, 3]: 70.0 kg per litter
Total colostrum intake per litter ([1]; corrected for litter size, estimated from piglet weights at birth and 24 h (Theil et al.), 4 g/day calcium gluconate in fat matrix, top dress from day 80 of gestation until weaning): 5565 g
Increase of litter weight gain compared to placebo ([1]; first seven days of lactation): 7.6%
Litter size at weaning, difference compared to placebo ([1]; piglets per litter): 0.3
Numbers weaned ([1]; piglets per litter, 4 g/day, day 80 of gestation until weaning): 13.2
Neonatal mortality up to day 7 [1, 4]: 8.4%
Pre-wean mortality [1, 4]: 9.6%
Neonatal survival compared to placebo ([1]; result in words): greater
Survival throughout the whole lactation period compared to placebo ([1]; result in words): greater
Increase of litter weight gain compared to placebo ([1]; whole lactation period): 5%
Concentration of solutes in colostrum: Lactose (colostrum of sows; [5]): 2.4%
Concentration of solutes in colostrum: Protein (colostrum of sows; [5]): 17.5%
Higher output of total solids, total protein and lactose compared to placebo (colostrum of sows; colostrum): 6-10%
Concentration of solutes in colostrum: Total solids (colostrum of sows; total of fat, protein and lactose, Brix refractometry, sample just after first piglet was born): 25.0%
Total output of nutrients per sow: Total lactose per sow (colostrum of sows; [6]): 136 g
Total output of nutrients per sow: Total protein per sow (colostrum of sows; [6]): 1008 g
Total output of nutrients per sow: Total solids per sow (colostrum of sows; [6]): 1437 g
Litter weight gain day 1-day 21 ([2]; 4 g/day, day 109 of gestation until weaning): 67.1 kg
Litter size at weaning, difference compared to placebo ([2]; piglets per litter): 0.4
Survival of piglets throughout the whole lactation period compared to placebo ([2]; result in words): greater
Litter gain, difference compared to placebo ([2]; when correcting for the number of piglets weaned): 2.2 kg
